The source made the active and inactive calls. The rule behind the calls is not given here.
How the values were obtained:
[1] = biological target: Intercellular adhesion molecule (ICAM-1), Integrin alpha-L/beta-2 (Homo sapiens) (UniProt P20701+P05362+P05107); experiment: (§1) Inhibition of LFA1 binding to full length soluble ICAM1 by gamma scintillation counter; type: protein-complex assay
[2] = biological target: Intercellular adhesion molecule (ICAM-1), Integrin alpha-L/beta-2 (Homo sapiens, UniProt P05107+P05362+P20701); experiment: as §1; type: protein-complex assay
Sequence of Intercellular adhesion molecule (ICAM-1), Integrin alpha-L/beta-2 (P20701 whole entry): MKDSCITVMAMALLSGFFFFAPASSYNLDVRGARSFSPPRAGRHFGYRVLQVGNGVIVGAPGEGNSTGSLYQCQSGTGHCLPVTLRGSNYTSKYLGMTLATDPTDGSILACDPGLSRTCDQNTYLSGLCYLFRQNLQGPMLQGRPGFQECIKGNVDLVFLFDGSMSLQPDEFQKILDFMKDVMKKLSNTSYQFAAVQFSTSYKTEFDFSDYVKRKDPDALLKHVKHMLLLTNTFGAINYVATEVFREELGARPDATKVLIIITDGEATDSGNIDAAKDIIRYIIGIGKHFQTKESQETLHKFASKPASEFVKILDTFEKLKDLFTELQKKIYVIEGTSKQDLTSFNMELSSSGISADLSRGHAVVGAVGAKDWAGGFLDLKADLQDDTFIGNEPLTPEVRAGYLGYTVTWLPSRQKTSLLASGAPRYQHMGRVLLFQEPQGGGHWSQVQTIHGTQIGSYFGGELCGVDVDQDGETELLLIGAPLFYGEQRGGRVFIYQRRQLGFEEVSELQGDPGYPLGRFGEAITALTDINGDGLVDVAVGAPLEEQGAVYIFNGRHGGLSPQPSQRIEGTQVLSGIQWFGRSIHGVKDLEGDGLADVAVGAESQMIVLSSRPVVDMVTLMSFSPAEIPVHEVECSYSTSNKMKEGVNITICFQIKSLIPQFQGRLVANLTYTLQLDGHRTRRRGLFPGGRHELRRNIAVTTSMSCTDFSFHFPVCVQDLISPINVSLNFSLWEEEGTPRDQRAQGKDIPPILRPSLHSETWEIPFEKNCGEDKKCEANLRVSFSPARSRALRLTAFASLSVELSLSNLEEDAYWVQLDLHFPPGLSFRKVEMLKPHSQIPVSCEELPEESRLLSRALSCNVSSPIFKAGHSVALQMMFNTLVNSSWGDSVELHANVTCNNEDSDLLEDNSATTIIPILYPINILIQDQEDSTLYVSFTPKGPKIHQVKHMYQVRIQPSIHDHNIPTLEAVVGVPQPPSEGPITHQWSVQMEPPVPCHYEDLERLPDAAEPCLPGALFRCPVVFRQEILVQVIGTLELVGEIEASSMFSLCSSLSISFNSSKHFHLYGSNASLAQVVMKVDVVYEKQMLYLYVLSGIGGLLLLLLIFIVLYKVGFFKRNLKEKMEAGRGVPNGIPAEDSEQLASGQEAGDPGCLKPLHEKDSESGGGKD
Sequence of Intercellular adhesion molecule (ICAM-1), Integrin alpha-L/beta-2 (P05362 whole entry): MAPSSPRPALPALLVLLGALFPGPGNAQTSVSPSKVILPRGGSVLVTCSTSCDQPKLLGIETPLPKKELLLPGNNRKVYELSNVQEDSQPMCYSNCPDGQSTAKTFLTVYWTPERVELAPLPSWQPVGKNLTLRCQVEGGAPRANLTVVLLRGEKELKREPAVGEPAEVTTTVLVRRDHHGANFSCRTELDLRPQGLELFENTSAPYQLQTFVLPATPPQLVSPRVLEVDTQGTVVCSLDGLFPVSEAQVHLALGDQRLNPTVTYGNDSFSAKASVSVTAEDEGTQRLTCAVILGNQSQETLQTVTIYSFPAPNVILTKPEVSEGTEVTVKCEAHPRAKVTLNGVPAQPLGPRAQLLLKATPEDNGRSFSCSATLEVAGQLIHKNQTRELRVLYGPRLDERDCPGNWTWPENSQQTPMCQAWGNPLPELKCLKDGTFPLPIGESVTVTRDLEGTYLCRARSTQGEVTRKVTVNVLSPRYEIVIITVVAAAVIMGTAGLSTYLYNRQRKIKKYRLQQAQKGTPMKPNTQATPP
Sequence of Intercellular adhesion molecule (ICAM-1), Integrin alpha-L/beta-2 (P05107 whole entry): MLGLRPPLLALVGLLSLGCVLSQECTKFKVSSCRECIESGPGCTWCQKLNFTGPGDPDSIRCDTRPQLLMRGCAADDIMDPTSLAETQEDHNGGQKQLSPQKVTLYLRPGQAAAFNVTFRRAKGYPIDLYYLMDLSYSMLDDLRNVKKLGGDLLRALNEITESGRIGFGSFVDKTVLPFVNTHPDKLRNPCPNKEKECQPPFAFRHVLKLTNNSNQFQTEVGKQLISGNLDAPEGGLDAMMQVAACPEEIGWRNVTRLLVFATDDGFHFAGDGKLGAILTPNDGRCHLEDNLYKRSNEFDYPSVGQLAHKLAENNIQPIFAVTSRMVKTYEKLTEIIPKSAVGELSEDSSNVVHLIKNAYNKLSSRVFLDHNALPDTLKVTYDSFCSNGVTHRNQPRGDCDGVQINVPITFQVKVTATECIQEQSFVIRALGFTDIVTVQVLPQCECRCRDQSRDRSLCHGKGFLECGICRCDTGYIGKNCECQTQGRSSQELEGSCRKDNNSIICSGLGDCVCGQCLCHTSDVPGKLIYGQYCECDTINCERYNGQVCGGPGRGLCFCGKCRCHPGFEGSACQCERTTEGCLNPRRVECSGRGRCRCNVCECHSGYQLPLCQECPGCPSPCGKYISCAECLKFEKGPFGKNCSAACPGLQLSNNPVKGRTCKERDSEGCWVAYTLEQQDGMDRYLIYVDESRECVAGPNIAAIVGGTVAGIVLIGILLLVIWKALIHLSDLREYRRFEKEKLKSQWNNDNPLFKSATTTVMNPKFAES

| Activity [1] | IC50 [2] | SMILES |
| --- | --- | --- |
| Active | – | C=C/C(C)=C\C[C@]1(C)[C@H]2C[C@@H](OC(C)=O)C[C@@H]3[C@H](OC(C)=O)O[C@H](OC(C)=O)[C@@]32C(=O)C[C@@H]1C |
| – | 50 µM | C=C/C(C)=C/C[C@]1(C)[C@H]2C[C@@H](OC(=O)/C(C)=C/C)C[C@@H]3[C@H](OC(C)=O)OC(OC(C)=O)[C@@]32[C@H](O)C[C@@H]1C (some centres undefined) [CASEARINOL A] |
| Active | – | C=C/C(C)=C/C[C@]1(C)[C@H]2C[C@@H](OC(C)=O)C[C@@H]3[C@H](OC(C)=O)O[C@H](OC(C)=O)[C@@]32C(=O)C[C@@H]1C |
| Active | – | C=C/C(C)=C/C[C@]1(C)[C@H]2C[C@@H](OC(=O)C(C)CC)C[C@@H]3[C@H](OC(C)=O)OC(OC(C)=O)[C@@]32[C@H](O)C[C@@H]1C (some centres undefined) |
